Reference: patent US20130216590A1, “TOPICAL ANTIVIRAL FORMULATIONS FOR PREVENTION OF TRANSMISSION OF HSV-2” (priority 2010, published 2013)
≈ marks a conversion by molar mass, not a printed value. Read-outs that look alike come from different tables or passages of the source.

What was measured:
HSV-1 and HSV-2 = test: HSV cytopathic effect (CPE) reduction assay, laboratory strains, HEL cell monolayers and PHKs; format: cell-based, herpes simplex virus; details: HEL, read-out: EC50, inhibition of virus-induced cytopathicity
[1] = test system: thymidine kinase-deficient HSV-1 clinical isolates; test: microbe, parasite or virus in culture; format: cell-based; details: Human alphaherpesvirus 1, Fibroblast
[2] = test system: HSV-2 wt clinical isolates; test: HSV CPE reduction assay, clinical isolates in HEL fibroblast cell cultures; format: cell-based; details: Human alphaherpesvirus 2, Fibroblast
[3] = test system: thymidine kinase-deficient HSV-2 clinical isolates; test: microbe, parasite or virus in culture; format: cell-based; details: Human alphaherpesvirus 2, Fibroblast
HSV-2 = test: Herpes virus infection of primary monocyte/macrophage (M/M) cell cultures; format: cell-based
Protocol: Human peripheral blood mononuclear cells (PBMCs) were obtained from the blood of healthy seronegative donors by Ficoll-Hypaque density gradient centrifugation. […] Monocyte/macrophage (M/M) cells were separated by adherence onto plastic. […] African green monkey fibroblastoid kidney (Vero) cells highly sensitive to the cytopathic effect of HSV-2 were grown in RPMI medium supplemented with 10% heat inactivated FCS and were used in infectious virus titration assays.
Macrophage cultures were then infected with HSV-2 (100 CCID50) in the presence of the test compounds. After 2 hrs virus adsorption, the cultures were extensively washed to remove any residual virus particles. Fresh culture medium and compounds, at the indicated concentrations, were then added to the cultures. […] Appropriate positive (infected but not treated M/M) and mock-infected negative (uninfected and untreated M/M) controls were run for each experiment as well. All assays were performed in triplicate. […] Therefore, the potential inhibitory effect of the compounds on the replication of HSV-2 was evaluated 6 days after infection. The amount of infectious virus in the supernatants was determined by a classical limited dilution assay on Vero cell cultures. The titers of produced virus were calculated according to the Reed and Muench method and expressed as 50% tissue culture infective dose per ml (TCID50/ml).
The inhibition capacity was expressed in % and calculated considering as value 100 being the virus production in virus-infected untreated cultures.

HIV-1 (NL4.3) = test: Co-infection of TZM-bl cells with HIV-1 and HSV-2: LTR-driven luciferase; format: cell-based; details: presence or absence of an ongoing HSV-2 infection; data not shown
Protocol: The TZM-bl cell line is derived from HeLa cells and expresses high levels of CD4, CCR5 and CXCR4. In addition, this cell line is stably transduced with a LTR-driven firefly luciferase and E. coli-galactosidase gene (15). In a 96-well tray, 10,000 TZM-bl cells were seeded on day 1. […] Next, 100 μl of a virus suspension containing either HIV-1 (NL4.3), HSV-2 (G) or both viruses together was administered. Two to three days post infection, HIV-1 infection was monitored based on the determination of luciferase activity. For this means, 100 μl of culture supernatant was removed and 100 μl of Bright-Glo Luciferase Assay Substrate (Promega, Madison, USA) was added. The luminescence signal was measured using the Safire 2 microtiter plate reader (Tecan, Männedorf, Switzerland). A control condition containing only mock-infected cells was also included to measure the background luminescence levels. Three days post infection, HSV-2-induced cytopathicity was recorded microscopically based on giant cell formation.

HSV-1 strain F (HSV-1F) = test: Human ex vivo tonsillar tissue, HSV DNA release by real-time PCR; format: cell-based; details: Human alphaherpesvirus 1, read-out: EC50, suppression of replication
HSV-2 strain G (HSV-2G) = test: as above; format: cell-based
Protocol: (§1) For each experimental condition 16 tissue blocks were immersed in 500 μl of a HSV-2 (strain G) suspension for 2 hours at 37° C., washed three times with PBS and then placed on the gelfoam rafts. Tenofovir was added during the infection and replenished at each culture medium change. Herpes simplex viral replication was evaluated by the release of viral DNA into the culture medium as measured by quantitative real-time PCR (17). HIV-1 replication was evaluated by the release of p24 capsid antigen using a bead-based assay (18).

HSV-2G = test: Human ex vivo tonsillar tissue coinfected with HSV-2G and HIV-1: HSV-2G DNA release; format: cell-based; details: 66 μg/ml, coinfected with HIV-1
Protocol: as §1

HSV-2 (strain G) = test: Human ex vivo cervico-vaginal tissue, HSV-2 DNA release; format: cell-based; details: 166 μg/ml
Protocol: as §1

HSV-1 (Kos strain) = test: In vivo antiviral activity in HSV-1-infected NMRI athymic nude mice; details: 1% topical, 5 days
Protocol: (§2) Adult NMRI athymic nude mice (weighing ˜20 g) were scarified on the lumbosacral area over a surface of about 1 cm^2. Mice were inoculated with 5×10^3 PFU of HSV-1 (Kos strain) or 5×10^2 of HSV-2 (G strain) in 50 μL per mouse. […] In each experiment, a group of animals treated with a placebo formulation that was the same as the test formulation without drug was included as a negative control. […] The day of virus inoculation was always considered as day 0. All animal procedures were approved by the K.U. Leuven Animal Care Committee. Development of lesions and mortality were recorded over a one month period. Animals were euthanized when more than 30% loss in body weight or development of paralysis occurred. Survival rates were estimated according to the Kaplan-Meir method and were compared using the log-rank test (Mantel-Cox) test (GraphPad Prism).

HSV-2 (G strain) = test: In vivo antiviral activity in HSV-2-infected NMRI athymic nude mice
Protocol: as §2

`C[C@H](Cn1cnc2c(N)ncnc21)OCP(=O)(O)O` [tenofovir, (R)-9-(2-phosphonylmethoxypropyl)adenine] gave an EC50 (HSV-1 and HSV-2) of 100 to 200 µg/mL (≈ 348 to 696 µM), an EC50 ([1]; read-out: mean EC50) of no less than 166 µg/mL and an EC50 ([1]; read-out: range of EC50) of no less than 117 µg/mL. The EC50 ([2]; read-out: mean EC50) was no less than 157 µg/mL, the EC50 ([2]; read-out: range of EC50) was no less than 125 µg/mL and the EC50 ([3]; read-out: mean EC50) was 152 µg/mL (≈ 529 µM). The EC50 ([3]; read-out: range of EC50) was 131 to 179 µg/mL (≈ 456 to 623 µM), the CPE (HSV-2; 1 μg/ml or 0.2 μg/ml, day 6) was 70-80% and the “virus titer in supernatants” value (HSV-2; 1 μg/ml or 0.2 μg/ml, day 6) was 2.5×10^5 TCID50/ml. The “visible CPE” value (HSV-2; 5 μg/ml, day 6) was 30%, the “visible CPE” value (HSV-2; 20 μg/ml, day 6) was roughly 5% and the “virus titers in the culture supernatants versus untreated controls” value (HSV-2; 20 and 5 μg/ml, day 6) was “more than one log lower”. For the same compound, the virus replication (HSV-2; 500 and 100 μg/ml, day 6 post virus infection) was “completely suppressed virus replication”, the “suppression of HIV-1” value (HIV-1 (NL4.3)) was “equally suppressed” and the EC50 (HSV-1 strain F (HSV-1F)) was 7 µg/mL (≈ 24.4 µM). The “reduction of replication compared to infected donor matched-untreated tissue” value (HSV-2 strain G (HSV-2G); 66 μg/ml, HSV-2G) was 94±7%, the “release of viral DNA in culture medium” value (HSV-2 strain G (HSV-2G); 66 μg/ml, day 9 post infection, IQR 3.6-6.1, untreated 7.6) was 5.2 log10 DNA copies/ml and the EC50 (HSV-2 strain G (HSV-2G); Human alphaherpesvirus 2, read-out: EC50, suppression of replication) was 14 µg/mL (≈ 48.7 µM). For the same compound, the “HSV-2G DNA release into culture medium” value (HSV-2G; IQR 4.3-5.7, untreated 7.3) was 5 log10 copies/ml, the “suppression of HSV-2G replication” value (HSV-2G; n=6) was 96±1% and the “viral production (cumulative viral DNA release)” value (HSV-2 (strain G); 12 days of culture, IQR 4.8-5.7, untreated 6.6) was 5.5 log10 copies/mL. The “reduction of viral replication (averaged over experiments)” value (HSV-2 (strain G); n=5) was 78±9%, the “morbidity and survival curves compared to the placebo-treated group” value (HSV-1 (Kos strain)) was “significantly delayed” and the “survival curves and morbidity curves versus the placebo group” value (HSV-2 (G strain); DMSO formulation, starting the day of infection) was “statistically significant difference”. For the same compound, the “appearance of lesions and subsequent death” value (HSV-2 (G strain); formulated in the gel at 1%) was “delayed the appearance of herpes virus-related lesions and subsequent death”.
